In patent US20160257697A1, “THIOPHENE-SUBSTITUTED TETRACYCLIC COMPOUNDS AND METHODS OFUSE THEREOF FOR THE TREATMENT OF VIRAL DISEASES” (priority 2013, published 2016):
Like-named read-outs stand apart in the source and are kept apart here.

How the values were obtained:
Test in all cases: microbe, parasite or virus in culture
Assay type in all cases: cell-based, Hepatitis C virus (HCV)
HCV replicon 1AY93H = conditions: Replicon Assay A
How it was run: (§1)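 HCV RNA levels were calculated from Ct values (minus intercept, divided by slope) of a Neo primer/probe standard curve, with cyclophilin quantified the same way. Cells were seeded at 2000/well and incubated with compound for 3 days in 5% serum and 0.5% DMSO.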

HCV replicon 1A = conditions: Replicon Assay A
How it was run: as §1

HCV replicon 2B = conditions: Replicon Assay A
How it was run: as §1

HCV replicon 1AQ30D = conditions: Replicon Assay B
HCV replicon 1B = conditions: Replicon Assay B
[1] = read-out: 1A Y93H IC50, replicon 1AY93H
[2] = read-out: 1A Q30D IC50, replicon 1AQ30D
[3] = Hepatitis C virus, read-out: 1A Y93H IC50 (nM), replicon 1AY93H
[4] = Hepatitis C virus, read-out: 2B IC50 (nM), replicon 2B
[5] = Hepatitis C virus, read-out: 1A Q30D IC50 (nM), replicon 1AQ30D
[6] = Hepatitis C virus, read-out: 1A Y93H IC50, HCV replicon 1A Y93H
[7] = Hepatitis C virus, HCV replicon 1A
[8] = Hepatitis C virus, read-out: 2B IC50, HCV replicon 2B
[9] = Hepatitis C virus, read-out: 1A Q30D IC50, HCV replicon 1A Q30D
[10] = Hepatitis C virus, HCV replicon 1B
[11] = read-out: 1A Y93H IC50, HCV replicon 1A Y93H
[12] = replicon 1AY93H, read-out: 1A Y93H IC50
[13] = replicon 1AQ30D, read-out: 1A Q30D IC50

Row | SMILES | IC50 (HCV replicon 1AY93H; [1]) | IC50 (HCV replicon 1A; replicon 1A) | IC50 (HCV replicon 2B; read-out: 2B IC50, replicon 2B) | IC50 (HCV replicon 1AQ30D; [2]) | IC50 (HCV replicon 1B; Hepatitis C virus, replicon 1B) | IC50 (HCV replicon 1AY93H; [3]) | IC50 (HCV replicon 1A; Hepatitis C virus, replicon 1A) | IC50 (HCV replicon 2B; [4]) | IC50 (HCV replicon 1AQ30D; [5]) | IC50 (HCV replicon 1B; replicon 1B) | other results
1 | COC(=O)NC(C(=O)N1[C@@H]2C[C@@H]2C[C@H]1c1ncc(-c2ccc3c(c2)cc2n3C(c3ccc(C4CC4)s3)Oc3cc(-c4cnc([C@@H]5CCCN5C(=O)[C@@H](NC(=O)OC)C(C)C)[nH]4)cc(F)c3-2)[nH]1)C1C[C@@H](C)O[C@@H](C)C1 (single isomer, unassigned) [Compound 271] | 0.004 nM | 3.4 pM | 0.013 nM | 0.036 nM | 2.2 pM | – | – | – | – | – | –
2 | COC(=O)NC(C(=O)N1CCC[C@H]1c1ncc(-c2cc(F)c3c(c2)OC(c2ccc(C4CC4)s2)n2c-3cc3cc(-c4cnc([C@@H]5CCCN5C(=O)[C@@H](NC(=O)OC)C(C)C)[nH]4)ccc32)[nH]1)C1C[C@@H](C)O[C@@H](C)C1 (stereo partly shown) [Compound 188] | – | – | – | – | 1.2 pM | 0.002 nM | 1.7 pM | 0.005 nM | 0.02 nM | – | –
3 | COC(=O)NC(C(=O)N1CCC[C@@H]1c1ncc(-c2ccc3c(c2)cc2n3C(c3ccc(CC4CC4)s3)Oc3cc(-c4cnc([C@@H]5CCCN5C(=O)[C@@H](NC(=O)OC)C(C)C)[nH]4)cc(F)c3-2)[nH]1)C1C[C@@H](C)O[C@@H](C)C1 (stereo partly shown) [Compound 376] | – | – | – | – | 2.9 pM | 0.0023 nM | 2.6 pM | 0.006 nM | 0.0424 nM | – | –
4 | COC(=O)NC(C(=O)N1CCC[C@H]1c1ncc(-c2ccc3c(c2)cc2n3C(c3ccc(C(F)(F)F)s3)Oc3cc(-c4cnc([C@@H]5CCCN5C(=O)[C@@H](NC(=O)OC)C(C)C)[nH]4)cc(F)c3-2)[nH]1)C1C[C@@H](C)O[C@@H](C)C1 (stereo partly shown) [Compound 650] | – | – | – | – | – | – | – | – | – | – | IC50 (HCV replicon 1AY93H; [6]): 0.0057 nM; IC50 (HCV replicon 1A; [7]): 2 pM; IC50 (HCV replicon 2B; [8]): 0.005 nM; IC50 (HCV replicon 1AQ30D; [9]): 0.0458 nM; IC50 (HCV replicon 1B; [10]): 1.4 pM
5 | CCc1ccc(C2Oc3cc(-c4cnc([C@@H]5CCCN5C(=O)[C@@H](NC(=O)OC)C(C)C)[nH]4)cc(F)c3-c3cc4cc(-c5cnc([C@@H]6CCCN6C(=O)[C@@H](NC(=O)OC)C6CCOCC6)[nH]5)ccc4n32)s1 (single isomer, unassigned) [Compound 337] | 0.0021 nM | 1.6 pM | 0.0039 nM | 0.0266 nM | – | – | – | – | – | 1.6 pM | –
6 | COC(=O)NC(C(=O)N1[C@@H]2C[C@@H]2C[C@H]1c1ncc(-c2ccc3c(c2)cc2n3C(c3cc4c(s3)CCC4)Oc3cc(-c4cnc([C@@H]5CCCN5C(=O)[C@@H](NC(=O)OC)C(C)C)[nH]4)cc(F)c3-2)[nH]1)C(C)C (single isomer, unassigned) [Compound 659] | – | – | – | – | – | – | – | – | – | – | IC50 (HCV replicon 1AY93H; [11]): 0.0146 nM; IC50 (HCV replicon 1A; [7]): 3.5 pM; IC50 (HCV replicon 2B; [8]): 0.122 nM; IC50 (HCV replicon 1AQ30D; [9]): 0.535 nM; IC50 (HCV replicon 1B; [10]): 1.91 pM
7 | COC(=O)N[C@H](C(=O)N1CCC[C@H]1c1ncc(-c2cc(F)c3c(c2)OC(c2ccc(C4CC4)s2)n2c-3cc3cc(-c4cnc([C@@H]5CCCN5C(=O)[C@@H](NC(=O)OC)C5C[C@@H](C)O[C@@H](C)C5)[nH]4)ccc32)[nH]1)C1C[C@@H](C)O[C@@H](C)C1 (stereo partly shown) [Compound 303] | – | – | – | – | 1.3 pM | 0.002 nM | 2.6 pM | 0.003 nM | 0.008 nM | – | –
8 | COC(=O)NC(C(=O)N1CCC[C@H]1c1ncc(-c2ccc3c(c2)cc2n3C(c3cc4ccccc4s3)Oc3cc(-c4cnc([C@@H]5CCCN5C(=O)[C@@H](NC(=O)OC)C5CCOCC5)[nH]4)cc(F)c3-2)[nH]1)C(C)(C)F (single isomer, unassigned) [Compound 183] | 0.74 nM | 1.2 pM | 0.68 nM | 1.08 nM | – | – | – | – | – | 2.4 pM | –
9 | COC(=O)NC(C(=O)N1CCC[C@H]1c1ncc(-c2ccc3c(c2)cc2n3C(c3ccc(CC(F)(F)F)s3)Oc3cc(-c4cnc([C@@H]5CCCN5C(=O)[C@@H](NC(=O)OC)C(C)C)[nH]4)cc(F)c3-2)[nH]1)C1C[C@@H](C)O[C@@H](C)C1 (single isomer, unassigned) [Compound 382] | – | 1.7 pM | – | – | – | – | – | – | – | 2.5 pM | IC50 (HCV replicon 1AY93H; [12]): 0.0034 nM; IC50 (HCV replicon 2B; replicon 2B, read-out: 2B IC50): 0.008 nM; IC50 (HCV replicon 1AQ30D; [13]): 0.0229 nM
10 | COC(=O)N[C@H](C(=O)N1CCC[C@H]1c1ncc(-c2cc(F)c3c(c2)OC(c2ccc(C4CC4)s2)n2c-3cc3cc(-c4cnc([C@@H]5C[C@H]6C[C@H]6N5C(=O)[C@@H](NC(=O)OC)C5CCOCC5)[nH]4)ccc32)[nH]1)C(C)C (single isomer, unassigned) [Compound 652] | – | – | – | – | – | – | – | – | – | – | IC50 (HCV replicon 1AY93H; HCV replicon 1A Y93H, read-out: 1A Y93H IC50): 0.0331 nM; IC50 (HCV replicon 1A; HCV replicon 1A): 1.2 pM; IC50 (HCV replicon 2B; HCV replicon 2B, read-out: 2B IC50): 0.0532 nM; IC50 (HCV replicon 1AQ30D; HCV replicon 1A Q30D, read-out: 1A Q30D IC50): 0.327 nM; IC50 (HCV replicon 1B; HCV replicon 1B): 1.7 pM
11 | COC(=O)N[C@H](C(=O)N1CCC[C@H]1c1ncc(-c2cc(F)c3c(c2)OC(c2ccc(C(F)F)s2)n2c-3cc3cc(-c4cnc([C@@H]5CCCN5C(=O)[C@@H](NC(=O)OC)C(C)C)[nH]4)ccc32)[nH]1)C(C)C (single isomer, unassigned) [Compound 46] | – | – | – | – | 1 pM | 2.6 nM | 2.9 pM | 1.79 nM | 17.1 nM | – | –
12 | COC(=O)N[C@H](C(=O)N1CCC[C@H]1c1ncc(-c2cc(F)c3c(c2)OC(c2ccc(C(C)C)s2)n2c-3cc3cc(-c4cnc([C@@H]5CCCN5C(=O)[C@@H](NC(=O)OC)C(C)C)[nH]4)ccc32)[nH]1)C(C)C (single isomer, unassigned) [Compound 35] | – | – | – | – | 1.4 pM | 0.62 nM | 1.7 pM | 1.43 nM | 11.5 nM | – | –
13 | COC(=O)NC(C(=O)N1CCC[C@H]1c1ncc(-c2ccc3c(c2)c(F)c2n3C(c3ccc(C4CC4)s3)Oc3cc(-c4cnc([C@@H]5CCCN5C(=O)[C@@H](NC(=O)OC)C(C)C)[nH]4)cc(F)c3-2)[nH]1)C1CCOC(C)(C)C1 (single isomer, unassigned) [Compound 413] | – | – | – | – | – | – | – | – | – | – | IC50 (HCV replicon 1AY93H; [6]): 0.0141 nM; IC50 (HCV replicon 1A; [7]): 3 pM; IC50 (HCV replicon 2B; [8]): 0.0071 nM; IC50 (HCV replicon 1AQ30D; [9]): 0.278 nM; IC50 (HCV replicon 1B; [10]): 3 pM
14 | COC(=O)N[C@H](C(=O)N1CCC[C@H]1c1ncc(-c2cc(F)c3c(c2)OC(c2ccc(C4CC4)s2)n2c-3cc3cc(-c4cnc([C@@H]5CCCN5C(=O)[C@@H](NC(=O)OC)C5CCOCC5)[nH]4)ccc32)[nH]1)C(C)C (stereo partly shown) [Compound 127] | – | – | – | – | 2.8 pM | 0.002 nM | 2 pM | 0.003 nM | 0.02 nM | – | –
15 | COC(=O)N[C@H](C(=O)N1CCC[C@H]1c1ncc(-c2cc(F)c3c(c2)OC(c2cc(C4CC4)cs2)n2c-3cc3cc(-c4cnc([C@@H]5CCCN5C(=O)[C@@H](NC(=O)OC)C(C)C)[nH]4)ccc32)[nH]1)C(C)C (single isomer, unassigned) [Compound 24] | 1.35 nM | 2.7 pM | 2.75 nM | 14.9 nM | – | – | – | – | – | 3.1 pM | –
16 | COC(=O)N[C@H](C(=O)N1[C@@H]2C[C@@H]2C[C@H]1c1ncc(-c2ccc3c(c2)OC(c2ccc(C4CC4)s2)n2c-3cc3cc(-c4cnc([C@@H]5C[C@H]6C[C@H]6N5C(=O)[C@@H](NC(=O)OC)C(C)C)[nH]4)ccc32)[nH]1)C(C)C (single isomer, unassigned) [Compound 8] | – | 17.4 pM | – | – | – | – | – | – | – | 2.7 pM | IC50 (HCV replicon 1AY93H; [12]): 0.33 nM; IC50 (HCV replicon 2B; replicon 2B, read-out: 2B IC50): 0.14 nM; IC50 (HCV replicon 1AQ30D; [13]): 0.47 nM
17 | COC(=O)NC(C(=O)N1CCC[C@H]1c1ncc(-c2ccc3c(c2)cc2n3C(c3ccc(C4CC4)s3)Oc3cc(-c4cnc([C@@H]5CCCN5C(=O)[C@@H](NC(=O)OC)C(C)C)[nH]4)cc(F)c3-2)[nH]1)C1CCOC(C)(C)C1 (stereo partly shown) [Compound 219] | 0.003 nM | 2.2 pM | 0.005 nM | 0.034 nM | – | – | – | – | – | 3.2 pM | –
18 | COC(=O)NC(C(=O)N1CCC[C@H]1c1ncc(-c2cc(F)c3c(c2)OC(c2ccc(C4CC4)s2)n2c-3cc3cc(-c4cnc([C@@H]5CCCN5C(=O)[C@@H](NC(=O)OC)C(C)C)[nH]4)ccc32)[nH]1)C1C[C@@H](C)O[C@@H](C)C1 (single isomer, unassigned) [Compound 186] | 0.53 nM | 1.9 pM | – | – | 2.1 pM | – | – | 0.63 nM | 2.84 nM | – | –
19 | COC(=O)NC(C(=O)N1CCC[C@H]1c1ncc(-c2ccc3c(c2)cc2n3C(c3ccc(C4CC4)s3)Oc3cc(-c4cnc([C@@H]5CCCN5C(=O)[C@@H](NC(=O)OC)C(C)C)[nH]4)cc(F)c3-2)[nH]1)C1CCO[C@H](C)C1 (single isomer, unassigned) [Compound 139] | 0.085 nM | 1.9 pM | 0.11 nM | 1.03 nM | – | – | – | – | – | 1.4 pM | –
20 | COC(=O)N[C@H](C(=O)N1CCC[C@H]1c1ncc(-c2cc(C)c3c(c2)OC(c2ccc(C4CC4)s2)n2c-3cc3cc(-c4cnc([C@@H]5C[C@H]6C[C@H]6N5C(=O)[C@@H](NC(=O)OC)C(C)C)[nH]4)ccc32)[nH]1)C(C)C (single isomer, unassigned) [Compound 755] | – | – | – | – | – | – | – | – | – | – | IC50 (HCV replicon 1AY93H; [11]): 0.022 nM; IC50 (HCV replicon 1A; HCV replicon 1A): 2.8 pM; IC50 (HCV replicon 2B; read-out: 2B IC50, HCV replicon 2B): 0.023 nM; IC50 (HCV replicon 1AQ30D; read-out: 1A Q30D IC50, HCV replicon 1A Q30D): 0.341 nM; IC50 (HCV replicon 1B; HCV replicon 1B): 1.9 pM
